Source: patent publication US7202057B2 (Ortho-McNeil Pharmaceutical, Inc., priority 2000, dated 2007)

Key:
[1] = target: T1, guinea pig histamine H4 receptor (Cavia porcellus, UniProt Q91ZY3); details: read-out: Guinea Pig Ki
[2] = target: T2, human histamine H4 receptor (Homo sapiens, UniProt Q9H3N8)
[3] = target: T1, guinea pig histamine H4 receptor; details: read-out: ^3H-histamine Kd
[4] = target: T2, human histamine H4 receptor; details: pH 4

T2 sequence (Q9H3N8 whole entry): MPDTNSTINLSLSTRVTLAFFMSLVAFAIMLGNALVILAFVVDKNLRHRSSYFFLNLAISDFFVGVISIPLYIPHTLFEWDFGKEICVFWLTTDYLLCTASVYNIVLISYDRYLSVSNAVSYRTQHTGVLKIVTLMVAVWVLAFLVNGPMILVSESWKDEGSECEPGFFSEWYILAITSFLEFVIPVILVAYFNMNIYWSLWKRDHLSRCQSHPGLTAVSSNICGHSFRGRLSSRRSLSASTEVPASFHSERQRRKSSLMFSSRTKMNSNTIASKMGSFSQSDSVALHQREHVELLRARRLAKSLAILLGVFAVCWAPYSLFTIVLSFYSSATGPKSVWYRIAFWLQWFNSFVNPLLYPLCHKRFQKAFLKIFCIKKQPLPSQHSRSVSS

NC(=NCc1ccc(Cl)cc1)SCCCc1cnc[nH]1 [Clobenpropit]
Ki [1]: 3.6 nM

NCCc1c[nH]cn1 [Histamine]
Activation of the receptor (decrease of forskolin-raised cAMP) [2]: specifically activated
Ki [1]: 27 nM

N=C(N)SCCc1cnc[nH]1 [Imetit]
Ki [1]: 30 nM

CNCCc1c[nH]cn1 [N-methylhistamine]
Ki [1]: 220 nM

C[C@@H](N)Cc1c[nH]cn1 [R-α-methylhistamine]
Ki [1]: 486 nM

S=C(NC1CCCCC1)N1CCC(c2cnc[nH]2)CC1 [Thioperamide]
Ki [1]: 83 nM

NCCc1cnc[nH]1 [^3H-histamine]
Kd [3]: 20 nM
Binding affinity in words [4]: high affinity
